# System: mouse cortical cultures
# Assay: RNA-seq differential expression (DESeq) against matched vehicle
# Assay type: cell-based
# Parameters: key to MeanFenamidone Bcl11b / MeanFenamidone Slc12a4 / MeanFenamidone Abca1 / MeanFenamidone Hmox1 / MeanFenamidone Il1rap / MeanFenamidone Cyba / MeanFenamidone Narf / MeanFenamidone Bnip3 / MeanFenamidone Amotl2 / MeanFenamidone Gad2 / MeanFenamidone Vsnl1 / MeanFenamidone Fam178a: DESeq mean of counts over RefSeq exons
# Procedure: Figure 4 Cluster 2 chemicals alter expression of a common set of genes. […] RNA-seq was performed in quadruplicate after treating cortical cultures with fenamidone (10 μM) or pyraclostrobin (0.1 μM) for 24 h (n=3 biological replicates) and compared with matched vehicle controls using DESeq to detect differentially expressed genes, listed in Supplementary Data 4.
# Cultures were treated with the non-cytotoxic dose of each chemical, by exchanging half of the original medium with chemicals at 2 × concentration in prewarmed feeding medium, on DIV 7 for 24 h in 12-well plates at a density of 5 × 10^5 cells per well. RNA was isolated using RNeasy plus mini kit (Cat. #74134, Qiagen). […]. Samples were further assessed for quality using either an Agilent Bioanalyzer 2100 or TapeStation 2200 to obtain a RIN. RIN values exceeding 7 were used for sequencing. RNA samples were used to generate and barcode complementary DNA libraries using the TruSeq RNA Library Preparation Kit at the UNC High Throughput Sequencing Facility. Pools of 24 multiplexed samples were sequenced per lane on an Illumina HiSeq 2500 using 50-bp paired-end reads.
# RNA-seq reads were filtered using TagDust and aligned to the reference mouse genome (mm9) with TopHat using default parameters. Reads aligning to ribosomal RNA genes were removed. Transcript abundance was estimated by computing Reads per kilobase per million mapped reads (RPKM) using RefSeq gene models aggregated by gene symbol. For differential expression analyses, raw counts over RefSeq exons were used, and then were compared across samples using DESeq[62].
smiles,measurement,setting,value
CSC1=N[C@@](C)(c2ccccc2)C(=O)N1Nc1ccccc1 [fenamidone],log2FoldChange,gene Prss23,2.578
same,MeanFenamidone Ptpn14,"gene Ptpn14, DESeq mean, 4 reps",536.253
same,log2FoldChange Ptpn14,"gene Ptpn14, vs vehicle, 4 reps",2.06
same,MeanFenamidone,gene Ptpro,128.9
same,log2FoldChange,gene Ptpro,-1.349
same,MeanFenamidone,gene Rab6b,1528.43
same,log2FoldChange,gene Rab6b,-1.231
same,MeanFenamidone Rian,"gene Rian, DESeq mean, 4 reps",479.419
same,log2FoldChange Rian,"gene Rian, vs vehicle, 4 reps",-1.772
same,MeanFenamidone Rimkla,"gene Rimkla, DESeq mean, 4 reps",54.5497
same,log2FoldChange Rimkla,"gene Rimkla, vs vehicle, 4 reps",-1.586
same,MeanFenamidone Rph3a,"gene Rph3a, DESeq mean, 4 reps",62.2069
same,log2FoldChange Rph3a,"gene Rph3a, vs vehicle, 4 reps",-2.0001
same,MeanFenamidone,gene Rsu1,240.928
same,log2FoldChange,gene Rsu1,1.174
same,MeanFenamidone Samd4,"gene Samd4, DESeq mean, 4 reps",336.652
same,log2FoldChange Samd4,"gene Samd4, vs vehicle, 4 reps",1.621
same,MeanFenamidone Scn2a1,"gene Scn2a1, DESeq mean, 4 reps",402.156
same,log2FoldChange Scn2a1,"gene Scn2a1, vs vehicle, 4 reps",-1.491
same,MeanFenamidone Sdc1,"gene Sdc1, DESeq mean, 4 reps",327.963
same,log2FoldChange Sdc1,"gene Sdc1, vs vehicle, 4 reps",1.6746
same,MeanFenamidone,gene Sdc3,1856.44
same,log2FoldChange,gene Sdc3,-1.095
same,MeanFenamidone Serpine2,"gene Serpine2, DESeq mean, 4 reps",777.193
same,log2FoldChange Serpine2,"gene Serpine2, vs vehicle, 4 reps",1.421
same,MeanFenamidone (DESeq mean normalized counts),"gene Serpinf1, Fenamidone, 4 reps, vs matched vehicle",51.7434
same,MeanFenamidone Serpini1,"gene Serpini1, DESeq mean, 4 reps",255.176
same,log2FoldChange Serpini1,"gene Serpini1, vs vehicle, 4 reps",-1.567
same,MeanFenamidone,gene Sgpl1,504.223
same,log2FoldChange,gene Sgpl1,1.381
same,MeanFenamidone Shank1,"gene Shank1, DESeq mean, 4 reps",288.972
same,log2FoldChange Shank1,"gene Shank1, vs vehicle, 4 reps",-1.584
same,MeanFenamidone,gene Shmt2,164.927
same,log2FoldChange,gene Shmt2,1.37
same,MeanFenamidone Slc3a2,"gene Slc3a2, DESeq mean, 4 reps",1206
same,log2FoldChange Slc3a2,"gene Slc3a2, vs vehicle, 4 reps",1.496
same,MeanFenamidone,gene Slc4a2,227.842
same,log2FoldChange,gene Slc4a2,1.898
same,MeanFenamidone Slc5a3,"gene Slc5a3, DESeq mean, 4 reps",905.314
same,log2FoldChange Slc5a3,"gene Slc5a3, vs vehicle, 4 reps",1.342
same,MeanFenamidone Slc8a3,"gene Slc8a3, DESeq mean, 4 reps",22.3077
same,log2FoldChange Slc8a3,"gene Slc8a3, vs vehicle, 4 reps",-2.167
same,MeanFenamidone Slc12a4,"gene Slc12a4, DESeq mean, 4 reps",353.466
same,log2FoldChange Slc12a4,"gene Slc12a4, vs vehicle, 4 reps",2.575
same,MeanFenamidone Slc12a5,"gene Slc12a5, DESeq mean, 4 reps",198.315
same,log2FoldChange Slc12a5,"gene Slc12a5, vs vehicle, 4 reps",-1.614
same,MeanFenamidone,gene Slc12a7,123.511
same,log2FoldChange,gene Slc12a7,2.012
same,MeanFenamidone Slc32a1,"gene Slc32a1, DESeq mean, 4 reps",76.5704
same,log2FoldChange Slc32a1,"gene Slc32a1, vs vehicle, 4 reps",-1.6789
same,MeanFenamidone,gene Slit2,473.475
same,log2FoldChange,gene Slit2,1.336
same,MeanFenamidone,gene Slitrk3,59.0221
same,log2FoldChange,gene Slitrk3,-1.399
same,MeanFenamidone Smpd3,"gene Smpd3, DESeq mean, 4 reps",450.951
same,log2FoldChange Smpd3,"gene Smpd3, vs vehicle, 4 reps",-1.523
same,MeanFenamidone,gene Snap91,577.837
same,log2FoldChange,gene Snap91,-1.2276
same,MeanFenamidone Snx33,"gene Snx33, DESeq mean, 4 reps",193.085
same,log2FoldChange Snx33,"gene Snx33, vs vehicle, 4 reps",2.21
same,MeanFenamidone,gene Sorl1,374.526
same,log2FoldChange,gene Sorl1,1.703
same,MeanFenamidone Spock3,"gene Spock3, DESeq mean, 4 reps",49.3806
same,log2FoldChange Spock3,"gene Spock3, vs vehicle, 4 reps",-2.6448
same,MeanFenamidone Sprn,"gene Sprn, DESeq mean, 4 reps",108.373
same,log2FoldChange Sprn,"gene Sprn, vs vehicle, 4 reps",-1.675
same,MeanFenamidone Srxn1,"gene Srxn1, DESeq mean, 4 reps",1016.41
same,log2FoldChange Srxn1,"gene Srxn1, vs vehicle, 4 reps",2.241
same,MeanFenamidone,gene Ssc5d,60.5262
same,log2FoldChange,gene Ssc5d,1.812
same,MeanFenamidone Ssfa2,"gene Ssfa2, DESeq mean, 4 reps",339.098
same,log2FoldChange Ssfa2,"gene Ssfa2, vs vehicle, 4 reps",1.684
same,MeanFenamidone,gene St8sia1,138.691
same,log2FoldChange,gene St8sia1,-1.185
same,MeanFenamidone St8sia3,"gene St8sia3, DESeq mean, 4 reps",218.799
same,log2FoldChange St8sia3,"gene St8sia3, vs vehicle, 4 reps",-1.589
same,MeanFenamidone,gene St8sia4,83.2874
same,log2FoldChange,gene St8sia4,-1.239
